Common to all, as to conditions: lysate: 5-cell-line mix (COLO-205, K562, SK-N-BE(2), MV-4-11, OVCAR-8)
One experiment addresses T1, MAP4K3 (UniProt Q8IVH8).
T1 sequence (whole entry): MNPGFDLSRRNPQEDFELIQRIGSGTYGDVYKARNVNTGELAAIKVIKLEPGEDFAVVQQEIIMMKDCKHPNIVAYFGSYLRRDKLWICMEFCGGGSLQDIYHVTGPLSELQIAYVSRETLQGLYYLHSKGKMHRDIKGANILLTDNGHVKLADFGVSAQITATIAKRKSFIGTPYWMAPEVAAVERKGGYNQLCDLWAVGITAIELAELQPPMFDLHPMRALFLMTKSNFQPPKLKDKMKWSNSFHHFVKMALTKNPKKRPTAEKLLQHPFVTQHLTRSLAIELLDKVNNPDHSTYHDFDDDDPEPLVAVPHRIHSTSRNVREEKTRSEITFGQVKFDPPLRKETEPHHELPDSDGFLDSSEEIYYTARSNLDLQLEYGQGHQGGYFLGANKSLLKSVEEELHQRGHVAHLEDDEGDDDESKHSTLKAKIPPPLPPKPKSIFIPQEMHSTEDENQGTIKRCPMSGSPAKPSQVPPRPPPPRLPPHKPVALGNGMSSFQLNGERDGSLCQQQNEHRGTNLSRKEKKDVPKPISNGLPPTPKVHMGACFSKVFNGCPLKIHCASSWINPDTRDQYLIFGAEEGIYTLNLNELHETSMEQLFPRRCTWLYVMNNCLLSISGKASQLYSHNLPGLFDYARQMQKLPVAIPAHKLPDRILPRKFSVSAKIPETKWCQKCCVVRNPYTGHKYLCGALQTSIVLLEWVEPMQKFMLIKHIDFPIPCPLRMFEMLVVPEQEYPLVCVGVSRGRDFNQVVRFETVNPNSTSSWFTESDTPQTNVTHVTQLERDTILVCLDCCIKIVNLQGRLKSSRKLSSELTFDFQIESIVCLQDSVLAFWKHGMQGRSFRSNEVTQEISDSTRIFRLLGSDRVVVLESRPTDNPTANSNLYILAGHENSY
The experiment in a line: EC50 for competition of Kinobead binding.

Experiment [1] has as its target T2, BCR (UniProt P11274).
T2 sequence (whole entry): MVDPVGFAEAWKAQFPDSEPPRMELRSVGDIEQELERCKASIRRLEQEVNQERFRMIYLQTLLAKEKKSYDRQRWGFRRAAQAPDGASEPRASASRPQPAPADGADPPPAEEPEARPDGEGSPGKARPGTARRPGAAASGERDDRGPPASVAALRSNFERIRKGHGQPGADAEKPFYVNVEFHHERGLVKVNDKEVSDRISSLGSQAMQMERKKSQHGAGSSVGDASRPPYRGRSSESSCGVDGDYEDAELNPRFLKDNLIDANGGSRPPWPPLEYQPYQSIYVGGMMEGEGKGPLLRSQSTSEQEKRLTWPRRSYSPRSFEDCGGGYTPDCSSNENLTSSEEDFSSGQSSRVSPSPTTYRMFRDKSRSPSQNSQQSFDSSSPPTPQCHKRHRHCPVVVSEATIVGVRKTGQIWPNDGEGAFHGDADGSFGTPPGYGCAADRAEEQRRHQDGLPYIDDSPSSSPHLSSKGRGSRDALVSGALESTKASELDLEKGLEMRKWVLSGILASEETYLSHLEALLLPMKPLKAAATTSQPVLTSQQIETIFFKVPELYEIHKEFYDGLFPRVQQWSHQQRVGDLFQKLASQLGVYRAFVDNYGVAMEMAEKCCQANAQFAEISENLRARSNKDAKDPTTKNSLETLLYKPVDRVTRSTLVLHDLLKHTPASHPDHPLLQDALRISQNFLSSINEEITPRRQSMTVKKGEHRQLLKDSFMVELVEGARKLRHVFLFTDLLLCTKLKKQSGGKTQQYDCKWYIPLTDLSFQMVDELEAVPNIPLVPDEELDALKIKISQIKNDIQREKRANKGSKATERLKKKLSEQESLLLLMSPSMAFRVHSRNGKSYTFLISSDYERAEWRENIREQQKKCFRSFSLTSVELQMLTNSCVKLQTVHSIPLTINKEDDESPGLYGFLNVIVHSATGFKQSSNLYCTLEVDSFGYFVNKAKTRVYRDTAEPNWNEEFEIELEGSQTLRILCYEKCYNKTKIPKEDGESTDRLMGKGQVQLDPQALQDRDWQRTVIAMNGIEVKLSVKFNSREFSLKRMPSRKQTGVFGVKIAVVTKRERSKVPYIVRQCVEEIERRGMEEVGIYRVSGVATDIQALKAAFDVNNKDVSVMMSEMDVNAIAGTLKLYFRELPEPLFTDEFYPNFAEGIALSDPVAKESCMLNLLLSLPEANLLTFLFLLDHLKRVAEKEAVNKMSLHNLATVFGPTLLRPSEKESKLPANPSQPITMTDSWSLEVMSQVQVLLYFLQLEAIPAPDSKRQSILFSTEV
The experiment in a line: EC50 for competition of Kinobead binding.

Experiment [2] concerns the target T3, PAG1 (UniProt Q9NWQ8).
T3 sequence (whole entry): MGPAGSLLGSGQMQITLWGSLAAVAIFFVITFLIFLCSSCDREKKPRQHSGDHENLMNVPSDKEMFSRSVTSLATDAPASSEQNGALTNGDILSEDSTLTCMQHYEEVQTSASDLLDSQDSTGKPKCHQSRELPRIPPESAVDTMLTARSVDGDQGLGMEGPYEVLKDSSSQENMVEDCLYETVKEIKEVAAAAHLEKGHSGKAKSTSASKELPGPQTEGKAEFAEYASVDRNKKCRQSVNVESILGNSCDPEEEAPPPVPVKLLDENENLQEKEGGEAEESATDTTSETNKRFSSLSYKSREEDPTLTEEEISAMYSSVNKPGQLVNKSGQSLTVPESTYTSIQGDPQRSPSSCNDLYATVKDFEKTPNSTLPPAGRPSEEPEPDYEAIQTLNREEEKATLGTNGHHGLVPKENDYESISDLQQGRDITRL
The experiment in a line: EC50 for competition of Kinobead binding.

The target in the next experiment is FRK (UniProt P42685). The experiment is described as follows: EC50 for competition of Kinobead binding.
In the next experiment the target is ABL1 (UniProt P00519). The experiment in a line: EC50 for competition of Kinobead binding.
The target in a further experiment is ABL2 (UniProt P42684). The experiment is described as follows: EC50 for competition of Kinobead binding.
For experiment [3], the target named is UNC119 (UniProt Q13432). The experiment in a line: EC50 for competition of Kinobead binding.
Another experiment deals with BTK (UniProt Q06187). The experiment is described as follows: EC50 for competition of Kinobead binding.
Another experiment addresses T4, FECH (UniProt P22830).
T4 sequence (whole entry): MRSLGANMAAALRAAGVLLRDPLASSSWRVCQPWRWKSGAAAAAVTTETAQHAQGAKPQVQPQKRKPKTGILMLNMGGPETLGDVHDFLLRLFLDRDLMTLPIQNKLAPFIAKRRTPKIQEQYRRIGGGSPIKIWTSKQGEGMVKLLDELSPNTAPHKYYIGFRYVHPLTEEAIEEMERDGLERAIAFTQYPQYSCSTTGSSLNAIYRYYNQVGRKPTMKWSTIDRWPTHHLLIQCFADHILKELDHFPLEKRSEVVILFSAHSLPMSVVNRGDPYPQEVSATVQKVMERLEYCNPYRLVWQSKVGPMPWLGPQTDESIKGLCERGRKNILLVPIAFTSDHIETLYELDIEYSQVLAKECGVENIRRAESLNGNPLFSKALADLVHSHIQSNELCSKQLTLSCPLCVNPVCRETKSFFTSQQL
The experiment in a line: apparent Kd (Kinobeads competition).

In experiment [4] the target is T2, BCR. The experiment is described as follows: apparent Kd (Kinobeads competition).
Experiment [5] concerns the target T3, PAG1. The experiment in a line: apparent Kd (Kinobeads competition).
The target in experiment [6] is UNC119 (UniProt Q13432). The experiment in a line: apparent Kd (Kinobeads competition).

± gives the uncertainty stated by the source.

Chain of ABL1 (P00519 whole entry): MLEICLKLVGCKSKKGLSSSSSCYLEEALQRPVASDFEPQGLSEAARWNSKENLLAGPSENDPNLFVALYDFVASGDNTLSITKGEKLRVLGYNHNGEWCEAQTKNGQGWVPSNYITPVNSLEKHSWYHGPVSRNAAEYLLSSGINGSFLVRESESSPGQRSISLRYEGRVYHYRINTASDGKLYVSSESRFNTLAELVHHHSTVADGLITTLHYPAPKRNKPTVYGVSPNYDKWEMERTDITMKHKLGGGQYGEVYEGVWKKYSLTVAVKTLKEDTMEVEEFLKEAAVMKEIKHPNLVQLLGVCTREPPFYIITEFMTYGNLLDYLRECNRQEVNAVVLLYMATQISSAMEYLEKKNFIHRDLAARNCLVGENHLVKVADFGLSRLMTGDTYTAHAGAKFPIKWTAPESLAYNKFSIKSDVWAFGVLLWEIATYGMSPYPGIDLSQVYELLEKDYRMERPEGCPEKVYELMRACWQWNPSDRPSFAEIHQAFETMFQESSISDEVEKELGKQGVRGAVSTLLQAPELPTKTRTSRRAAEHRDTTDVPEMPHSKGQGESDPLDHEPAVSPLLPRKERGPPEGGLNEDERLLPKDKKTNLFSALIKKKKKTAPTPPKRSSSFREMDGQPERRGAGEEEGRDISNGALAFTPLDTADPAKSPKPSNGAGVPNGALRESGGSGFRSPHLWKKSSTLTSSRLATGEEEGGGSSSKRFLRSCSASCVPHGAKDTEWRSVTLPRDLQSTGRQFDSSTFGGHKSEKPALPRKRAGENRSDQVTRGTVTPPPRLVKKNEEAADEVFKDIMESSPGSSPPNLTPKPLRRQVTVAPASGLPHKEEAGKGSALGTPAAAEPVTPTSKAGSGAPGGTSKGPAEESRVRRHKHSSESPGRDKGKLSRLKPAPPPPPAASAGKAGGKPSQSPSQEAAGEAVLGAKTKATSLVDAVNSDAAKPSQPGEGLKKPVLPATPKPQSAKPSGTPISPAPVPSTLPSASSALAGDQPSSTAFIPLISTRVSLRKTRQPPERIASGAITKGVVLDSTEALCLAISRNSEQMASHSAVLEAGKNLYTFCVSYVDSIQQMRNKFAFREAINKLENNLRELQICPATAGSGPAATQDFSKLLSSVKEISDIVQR
Chain of FRK (P42685 whole entry): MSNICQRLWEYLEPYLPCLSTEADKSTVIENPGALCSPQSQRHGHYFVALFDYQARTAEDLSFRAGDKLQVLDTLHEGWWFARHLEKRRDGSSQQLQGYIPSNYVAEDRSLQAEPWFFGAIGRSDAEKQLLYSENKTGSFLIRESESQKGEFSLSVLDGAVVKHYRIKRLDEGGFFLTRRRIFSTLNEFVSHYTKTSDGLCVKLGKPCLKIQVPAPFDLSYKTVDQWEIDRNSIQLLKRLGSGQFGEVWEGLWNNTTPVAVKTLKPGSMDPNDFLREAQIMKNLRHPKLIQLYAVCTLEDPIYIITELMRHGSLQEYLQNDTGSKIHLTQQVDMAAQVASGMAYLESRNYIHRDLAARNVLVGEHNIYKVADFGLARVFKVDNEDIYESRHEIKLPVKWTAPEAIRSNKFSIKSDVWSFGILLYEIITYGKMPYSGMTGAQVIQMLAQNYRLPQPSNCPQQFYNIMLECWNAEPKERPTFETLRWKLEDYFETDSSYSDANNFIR
Chain of ABL2 (P42684 whole entry): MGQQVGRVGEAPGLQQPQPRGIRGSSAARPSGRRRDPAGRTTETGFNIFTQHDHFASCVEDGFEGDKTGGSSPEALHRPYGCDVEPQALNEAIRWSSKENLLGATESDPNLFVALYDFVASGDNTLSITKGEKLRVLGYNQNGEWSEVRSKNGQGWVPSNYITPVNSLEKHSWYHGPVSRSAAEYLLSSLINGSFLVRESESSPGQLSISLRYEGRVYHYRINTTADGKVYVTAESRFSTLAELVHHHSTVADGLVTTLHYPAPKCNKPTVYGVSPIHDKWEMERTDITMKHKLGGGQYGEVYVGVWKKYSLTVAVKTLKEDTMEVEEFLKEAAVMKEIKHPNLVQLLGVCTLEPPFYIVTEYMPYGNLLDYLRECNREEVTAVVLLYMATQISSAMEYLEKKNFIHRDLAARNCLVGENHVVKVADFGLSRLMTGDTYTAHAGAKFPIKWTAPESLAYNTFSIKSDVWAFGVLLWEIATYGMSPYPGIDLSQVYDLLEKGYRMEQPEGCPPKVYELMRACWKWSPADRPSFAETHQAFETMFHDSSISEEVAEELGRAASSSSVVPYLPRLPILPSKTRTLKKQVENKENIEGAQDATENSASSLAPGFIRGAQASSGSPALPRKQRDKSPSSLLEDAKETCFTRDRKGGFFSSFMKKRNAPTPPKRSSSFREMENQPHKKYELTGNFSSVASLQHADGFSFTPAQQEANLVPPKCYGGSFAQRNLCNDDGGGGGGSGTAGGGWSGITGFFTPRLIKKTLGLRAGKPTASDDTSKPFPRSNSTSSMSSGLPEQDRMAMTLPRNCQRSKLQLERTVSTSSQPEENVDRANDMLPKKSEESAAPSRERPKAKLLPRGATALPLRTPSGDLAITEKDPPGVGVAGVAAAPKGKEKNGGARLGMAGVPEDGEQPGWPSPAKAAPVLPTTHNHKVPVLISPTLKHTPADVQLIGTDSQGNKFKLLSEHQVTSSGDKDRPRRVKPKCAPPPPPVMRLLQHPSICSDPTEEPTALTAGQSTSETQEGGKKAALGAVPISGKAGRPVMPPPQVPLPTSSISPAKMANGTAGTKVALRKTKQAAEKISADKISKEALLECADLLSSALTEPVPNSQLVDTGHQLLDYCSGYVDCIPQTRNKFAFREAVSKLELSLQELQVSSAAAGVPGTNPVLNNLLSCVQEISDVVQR
Chain of BTK (Q06187 whole entry): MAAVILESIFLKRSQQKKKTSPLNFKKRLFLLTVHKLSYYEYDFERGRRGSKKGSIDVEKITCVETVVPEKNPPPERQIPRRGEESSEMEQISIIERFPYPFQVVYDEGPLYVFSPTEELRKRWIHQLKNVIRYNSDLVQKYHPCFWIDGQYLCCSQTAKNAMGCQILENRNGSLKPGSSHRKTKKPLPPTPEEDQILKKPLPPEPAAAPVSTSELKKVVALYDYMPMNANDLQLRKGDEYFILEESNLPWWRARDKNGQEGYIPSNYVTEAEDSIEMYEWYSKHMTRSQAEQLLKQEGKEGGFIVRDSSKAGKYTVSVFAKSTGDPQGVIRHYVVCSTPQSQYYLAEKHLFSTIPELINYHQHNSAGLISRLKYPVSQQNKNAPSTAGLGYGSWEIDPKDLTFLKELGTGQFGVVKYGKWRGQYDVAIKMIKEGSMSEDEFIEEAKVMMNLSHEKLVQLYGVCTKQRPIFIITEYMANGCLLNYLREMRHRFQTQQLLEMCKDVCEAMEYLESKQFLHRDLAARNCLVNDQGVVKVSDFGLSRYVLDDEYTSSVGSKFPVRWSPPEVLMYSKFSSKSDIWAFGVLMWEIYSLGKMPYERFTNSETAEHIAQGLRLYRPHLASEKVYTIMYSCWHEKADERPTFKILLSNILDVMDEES

As a reminder, the EC50 is the concentration giving half of the maximal effect. As for `COc1ccc2c(C(=O)Nc3ccc(NC(=O)c4nn(C5CCN(C(=O)CC(C)(C)C#N)CC5)c5ccc(F)cc45)cc3Cl)cnn2c1` [Src Inhibitor 3], the EC50 turned out to be 14300 ± 28000 nM at MAP4K3; 790 ± 430 nM at BCR [1]; 70.9 ± 11 nM on PAG1 [2]; 17600 ± 34000 nM on FRK; 1530 ± 2600 nM at ABL1; 332 ± 170 nM at ABL2. The EC50 on UNC119 [3] was determined as 904 ± 250 nM; on BTK, 4250 ± 2700 nM. The Kd at FECH came to 6350 nM; at BCR [4], 127 nM; at PAG1 [5] it was 48.4 nM; on UNC119 [6], 24.1 nM.

The values above are taken from the supplement of paper PMC12823440, “Inhibitors supercharge kinase turnover through native proteolytic circuits” (Nature, 2025).
